Measurements as given in patent US12612412B2, “Antiviral heterocyclic compounds” (Enanta Pharmaceuticals, Inc., priority 2021, dated 2026).

What was measured:
[1] = test system: genotype A, "Long" strain RSV; assay: RSV-A assay (CPE protection in Hep-2 cells, ATPlite readout); assay type: cell-based, Human respiratory syncytial virus (HRSV); settings: human respiratory syncytial virus, RSV-A Long strain, MOI 0.1, CPE protection, read-out: Human RSV-A (“Long”) EC50
Method in brief: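 Hep-2 cells (8,000/well) infected with RSV Long strain at MOI 0.1 in the presence of 2-fold compound dilutions in duplicate. After 5 days, cell viability measured by ATPlite luminescence, normalized between virus-only and uninfected cell controls; EC50 reported.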

[2] = test system: HMPV clinical isolate TN/1501/A1; assay: HMPV antiviral assay Method-B (clinical isolate TN/1501/A1 in LLC-MK2 cells, ATP-Lite readout); assay type: cell-based, Human metapneumovirus (HMPV); settings: human metapneumovirus, LLC-MK2, 144 h, hMPV WT1501 (clinical isolate TN/1501/A1), 6 days
Method in brief: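 LLC-MK2 cells infected in suspension with TN/1501/A1 at MOI 0.014 in serum-free medium with 2 μg/mL TPCK-trypsin (final), incubated 6 days at 37° C. Compounds tested in duplicate, 10-point 3-fold dilutions from 10 μM. Cell health read by ATP-Lite luminescence, normalised to virus-only and cells-only controls; EC50 by four-parameter logistic fit.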

| EC50 [1] [nM] | EC50 [2] [nM] | Compound |
| --- | --- | --- |
| < 200 | < 500 | COc1cc(C(=O)NC[C@](O)(c2cc3c(c(-c4c(F)cccc4Cl)n2)OC[C@]3(C)C(N)=O)C(F)(F)F)cc2cn(C3CC3)nc12 [Example 989] |
| < 200 | < 500 | COc1cc(C(=O)NC[C@](O)(c2cc3c(c(-c4cc(Cl)ccc4F)n2)OC[C@]3(C)C(N)=O)C(F)(F)F)cc2cn(C3CC3)nc12 [Example 990] |
| < 200 | < 500 | COc1cc(C(=O)NC[C@](O)(c2cc3c(c(-c4cc(F)ccc4Cl)n2)OC[C@]3(C)C(N)=O)C(F)(F)F)cc2cn(C3CC3)nc12 [Example 991] |
| < 200 | < 500 | COc1cc(C(=O)NC[C@](O)(c2cc3c(c(-c4cc(F)ccc4F)n2)OC[C@]3(C)C(N)=O)C(F)(F)F)cc2cn(C3CC3)nc12 [Example 992] |
| < 200 | < 500 | COc1cc(C(=O)NC[C@](O)(c2cc3c(c(-c4ccc(F)cc4Cl)n2)OC[C@]3(C)C(N)=O)C(F)(F)F)cc2cn(C3CC3)nc12 [Example 993] |
| < 200 | < 500 | COc1cc(C(=O)NC[C@](O)(c2cc3c(c(-c4ccc(C(F)(F)F)s4)n2)OC[C@]3(C)C(N)=O)C(F)(F)F)cc2cn(C3CC3)nc12 [Example 994] |
| > 200 | > 500 | COc1cc(C(=O)NC[C@](O)(c2cc3c(c(-c4ccc5c(c4)C(F)(F)C(=O)N5)n2)OC[C@]3(C)C(N)=O)C(F)(F)F)cc2cn(C3CC3)nc12 [Example 995] |
| < 200 | < 500 | COc1cc(C(=O)NC[C@](O)(c2cc3c(c(-c4cc(F)c(F)c(F)c4F)n2)OC[C@]3(C)C(N)=O)C(F)(F)F)cc2cn(C3CC3)nc12 [Example 996] |
| < 200 | < 500 | COc1cc(C(=O)NC[C@](O)(c2cc3c(c(-c4c(F)cc(F)cc4F)n2)OC[C@]3(C)C(N)=O)C(F)(F)F)cc2cn(C3CC3)nc12 [Example 997] |
| < 200 | < 500 | COc1cc(C(=O)NC[C@](O)(c2cc3c(c(-c4ccc(F)cc4)n2)OC[C@@]3(C(N)=O)C(F)F)C(F)(F)F)cc2cn(C3CC3)nc12 [Example 999] |
| < 200 | > 500 | COc1cc(C(=O)NC[C@](O)(c2cc3c(c(-c4ccc(F)cc4)n2)OC[C@]3(C(N)=O)C(F)F)C(F)(F)F)cc2cc(Cl)c(C)nc12 [Example 1000] |
| < 200 | < 500 | COc1cc(C(=O)NC[C@](O)(c2cc3c(c(-c4ccc(F)cc4)n2)OC[C@@]3(C(N)=O)C(F)F)C(F)(F)F)cc2cc(Cl)c(C)nc12 [Example 1001] |
| > 200 | > 500 | COc1cc(C(=O)NC[C@](O)(c2cc3c(c(-c4ccc(F)c(Cl)c4)n2)OC[C@]3(C(N)=O)C(F)F)C(F)(F)F)cc2cn(C3CC3)nc12 [Example 1002] |
| < 200 | < 500 | COc1cc(C(=O)NC[C@](O)(c2cc3c(c(-c4ccc(F)c(Cl)c4)n2)OC[C@@]3(C(N)=O)C(F)F)C(F)(F)F)cc2cn(C3CC3)nc12 [Example 1003] |
| > 200 | > 500 | COc1cc(C(=O)NC[C@](O)(c2cc3c(c(-c4ccc(F)c(Cl)c4)n2)OC[C@]3(C(N)=O)C(F)F)C(F)(F)F)cc2cc(Cl)c(C)nc12 [Example 1004] |
| < 200 | < 500 | COc1cc(C(=O)NC[C@](O)(c2cc3c(c(-c4ccc(F)c(Cl)c4)n2)OC[C@@]3(C(N)=O)C(F)F)C(F)(F)F)cc2cc(Cl)c(C)nc12 [Example 1005] |
| > 200 | > 500 | Cc1cnc2c(OC(F)F)cc(C(=O)NC[C@](O)(c3cc4c(c(-c5ccc(F)cc5)n3)OC[C@]4(C(N)=O)C(F)F)C(F)(F)F)cc2c1 [Example 1006] |
| < 200 | < 500 | Cc1cnc2c(OC(F)F)cc(C(=O)NC[C@](O)(c3cc4c(c(-c5ccc(F)cc5)n3)OC[C@@]4(C(N)=O)C(F)F)C(F)(F)F)cc2c1 [Example 1007] |
| > 200 | > 500 | Cc1cnc2c(OC(F)F)cc(C(=O)NC[C@](O)(c3cc4c(c(-c5ccc(F)c(Cl)c5)n3)OC[C@]4(C(N)=O)C(F)F)C(F)(F)F)cc2c1 [Example 1008] |
| < 200 | < 500 | Cc1cnc2c(OC(F)F)cc(C(=O)NC[C@](O)(c3cc4c(c(-c5ccc(F)c(Cl)c5)n3)OC[C@@]4(C(N)=O)C(F)F)C(F)(F)F)cc2c1 [Example 1009] |
| > 200 | > 500 | COc1cc(C(=O)NC[C@](O)(c2cc3c(c(-c4ccc5c(c4)OC(F)(F)O5)n2)OC[C@]3(C(N)=O)C(F)F)C2CC2)cc2cn(C3CC3)nc12 [Example 1010] |
| < 200 | < 500 | COc1cc(C(=O)NC[C@](O)(c2cc3c(c(-c4ccc5c(c4)OC(F)(F)O5)n2)OC[C@@]3(C(N)=O)C(F)F)C2CC2)cc2cn(C3CC3)nc12 [Example 1011] |

| EC50 [1] [nM] | EC50 [2] [nM] | Compound |
| --- | --- | --- |
| > 200 | > 500 | COc1cc(C(=O)NC[C@](O)(c2cc3c(c(-c4ccc5c(c4)OC(F)(F)O5)n2)OC[C@]3(C(N)=O)C(F)F)C2CC2)cc2cc(C3CC3)nn12 [Example 1012] |
| < 200 | < 500 | COc1cc(C(=O)NC[C@](O)(c2cc3c(c(-c4ccc5c(c4)OC(F)(F)O5)n2)OC[C@@]3(C(N)=O)C(F)F)C2CC2)cc2cc(C3CC3)nn12 [Example 1013] |
| < 200 | < 500 | COc1cc(C(=O)NC[C@](O)(c2cc3c(c(-c4ccc5c(c4)OC(F)(F)O5)n2)OC[C@]3(C(N)=O)C(F)F)C2CC2)cc2cc(Cl)c(C)nc12 [Example 1014] |
| < 200 | < 500 | COc1cc(C(=O)NC[C@](O)(c2cc3c(c(-c4ccc5c(c4)OC(F)(F)O5)n2)OC[C@@]3(C(N)=O)C(F)F)C2CC2)cc2cc(Cl)c(C)nc12 [Example 1015] |
| > 200 | > 500 | COc1cc(C(=O)NC[C@](O)(c2cc3c(c(-c4ccc(F)c(Cl)c4)n2)OC[C@]3(C(N)=O)C(F)F)C(F)(F)F)cc2sc(C3CC3)nc12 [Example 1016] |
| < 200 | < 500 | COc1cc(C(=O)NC[C@](O)(c2cc3c(c(-c4ccc(F)c(Cl)c4)n2)OC[C@@]3(C(N)=O)C(F)F)C(F)(F)F)cc2sc(C3CC3)nc12 [Example 1017] |
| > 200 | > 500 | COc1cc(C(=O)NC[C@](O)(c2cc3c(c(-c4ccc(F)c(Cl)c4)n2)OC[C@]3(C(N)=O)C(F)F)C(F)(F)F)cc2sc(C)nc12 [Example 1018] |
| < 200 | < 500 | COc1cc(C(=O)NC[C@](O)(c2cc3c(c(-c4ccc(F)c(Cl)c4)n2)OC[C@@]3(C(N)=O)C(F)F)C(F)(F)F)cc2sc(C)nc12 [Example 1019] |
| > 200 | > 500 | Cc1cnc2c(OC(F)F)cc(C(=O)NC[C@](O)(c3cc4c(c(-c5ccc6c(c5)OC(F)(F)O6)n3)OC[C@]4(C(N)=O)C(F)F)C3CC3)cc2c1 [Example 1020] |
| < 200 | < 500 | Cc1cnc2c(OC(F)F)cc(C(=O)NC[C@](O)(c3cc4c(c(-c5ccc6c(c5)OC(F)(F)O6)n3)OC[C@@]4(C(N)=O)C(F)F)C3CC3)cc2c1 [Example 1021] |
| > 200 | > 500 | COc1cc(C(=O)NC[C@](O)(c2cc3c(c(-c4ccc(F)cc4)n2)OC[C@]3(C(N)=O)C(F)F)C2CC2)cc2cn(C3CC3)nc12 [Example 1022] |
| < 200 | < 500 | COc1cc(C(=O)NC[C@](O)(c2cc3c(c(-c4ccc(F)cc4)n2)OC[C@@]3(C(N)=O)C(F)F)C2CC2)cc2cn(C3CC3)nc12 [Example 1023] |
| > 200 | > 500 | COc1cc(C(=O)NC[C@](O)(c2cc3c(c(-c4ccc(F)c(Cl)c4)n2)OC[C@]3(C(N)=O)C(F)F)C2CC2)cc2cn(C3CC3)nc12 [Example 1024] |
| < 200 | < 500 | COc1cc(C(=O)NC[C@](O)(c2cc3c(c(-c4ccc(F)c(Cl)c4)n2)OC[C@@]3(C(N)=O)C(F)F)C2CC2)cc2cn(C3CC3)nc12 [Example 1025] |
| > 200 | > 500 | Cc1cnc2c(OC(F)F)cc(C(=O)NC[C@](O)(c3cc4c(c(-c5ccc(F)cc5)n3)OC[C@]4(C(N)=O)C(F)F)C3CC3)cc2c1 [Example 1026] |
| < 200 | < 500 | Cc1cnc2c(OC(F)F)cc(C(=O)NC[C@](O)(c3cc4c(c(-c5ccc(F)cc5)n3)OC[C@@]4(C(N)=O)C(F)F)C3CC3)cc2c1 [Example 1027] |
| > 200 | > 500 | Cc1cnc2c(OC(F)F)cc(C(=O)NC[C@](O)(c3cc4c(c(-c5ccc(F)c(Cl)c5)n3)OC[C@]4(C(N)=O)C(F)F)C3CC3)cc2c1 [Example 1028] |
| < 200 | < 500 | Cc1cnc2c(OC(F)F)cc(C(=O)NC[C@](O)(c3cc4c(c(-c5ccc(F)c(Cl)c5)n3)OC[C@@]4(C(N)=O)C(F)F)C3CC3)cc2c1 [Example 1029] |
| < 200 | > 500 | COc1cc(C(=O)NC[C@](O)(c2cc3c(c(-c4ccc(F)cc4)n2)OC[C@]3(C(N)=O)C(F)F)C2CC2)cc2cc(Cl)c(C)nc12 [Example 1030] |
| < 200 | < 500 | COc1cc(C(=O)NC[C@](O)(c2cc3c(c(-c4ccc(F)cc4)n2)OC[C@@]3(C(N)=O)C(F)F)C2CC2)cc2cc(Cl)c(C)nc12 [Example 1031] |
| > 200 | > 500 | COc1cc(C(=O)NC[C@](O)(c2cc3c(c(-c4ccc(F)c(Cl)c4)n2)OC[C@]3(C(N)=O)C(F)F)C2CC2)cc2cc(Cl)c(C)nc12 [Example 1032] |
| < 200 | < 500 | COc1cc(C(=O)NC[C@](O)(c2cc3c(c(-c4ccc(F)c(Cl)c4)n2)OC[C@@]3(C(N)=O)C(F)F)C2CC2)cc2cc(Cl)c(C)nc12 [Example 1033] |
